What was measured:
[1] = biological target: Adenosine receptor A2a (Homo sapiens, UniProt P29274)
[2] = biological target: T1, Alpha-2A adrenergic receptor (Homo sapiens, UniProt P08913); assay type: functional, cell-based
T1 sequence (P08913 whole entry): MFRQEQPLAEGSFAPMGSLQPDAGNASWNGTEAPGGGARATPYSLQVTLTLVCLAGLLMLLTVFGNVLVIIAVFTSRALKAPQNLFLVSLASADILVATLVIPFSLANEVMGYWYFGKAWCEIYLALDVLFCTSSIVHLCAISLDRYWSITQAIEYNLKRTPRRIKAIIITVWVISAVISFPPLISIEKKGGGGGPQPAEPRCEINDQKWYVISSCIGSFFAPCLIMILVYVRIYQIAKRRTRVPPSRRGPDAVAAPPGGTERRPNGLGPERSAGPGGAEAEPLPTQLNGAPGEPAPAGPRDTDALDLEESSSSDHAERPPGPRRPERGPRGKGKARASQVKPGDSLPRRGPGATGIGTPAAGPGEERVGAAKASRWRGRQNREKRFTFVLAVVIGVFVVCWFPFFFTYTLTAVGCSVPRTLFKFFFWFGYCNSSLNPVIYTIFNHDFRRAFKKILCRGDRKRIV

[3] = biological target: T2, Alpha-2B adrenergic receptor (Homo sapiens, UniProt P18089)
T2 sequence (P18089 whole entry): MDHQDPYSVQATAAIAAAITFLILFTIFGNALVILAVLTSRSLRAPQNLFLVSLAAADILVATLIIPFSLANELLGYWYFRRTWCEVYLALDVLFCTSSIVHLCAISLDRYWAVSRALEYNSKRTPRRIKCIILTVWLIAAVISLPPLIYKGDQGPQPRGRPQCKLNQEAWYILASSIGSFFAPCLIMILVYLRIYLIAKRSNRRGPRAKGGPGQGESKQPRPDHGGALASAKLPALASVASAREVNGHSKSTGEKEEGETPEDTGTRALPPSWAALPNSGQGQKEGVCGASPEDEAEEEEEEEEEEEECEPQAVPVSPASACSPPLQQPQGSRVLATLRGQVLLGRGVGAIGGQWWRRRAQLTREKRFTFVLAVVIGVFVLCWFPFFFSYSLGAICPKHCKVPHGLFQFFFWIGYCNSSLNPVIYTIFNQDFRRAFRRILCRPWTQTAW

[4] = biological target: T3, Cholecystokinin receptor type A (Homo sapiens, UniProt P32238)
T3 sequence (P32238 whole entry): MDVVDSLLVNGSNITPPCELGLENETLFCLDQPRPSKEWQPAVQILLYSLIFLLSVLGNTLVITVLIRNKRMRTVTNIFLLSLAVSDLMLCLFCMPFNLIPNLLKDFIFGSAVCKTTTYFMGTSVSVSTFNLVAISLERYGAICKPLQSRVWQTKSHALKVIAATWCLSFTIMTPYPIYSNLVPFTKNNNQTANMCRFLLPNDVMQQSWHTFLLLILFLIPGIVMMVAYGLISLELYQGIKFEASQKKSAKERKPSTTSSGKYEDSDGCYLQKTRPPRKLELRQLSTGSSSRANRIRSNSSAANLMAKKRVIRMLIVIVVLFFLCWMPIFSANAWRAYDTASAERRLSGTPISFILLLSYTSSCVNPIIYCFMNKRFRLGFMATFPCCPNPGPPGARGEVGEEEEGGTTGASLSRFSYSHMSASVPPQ

[5] = biological target: T4, Muscarinic acetylcholine receptor M2 (Homo sapiens, UniProt P08172); assay type: functional, cell-based
T4 sequence (P08172 whole entry): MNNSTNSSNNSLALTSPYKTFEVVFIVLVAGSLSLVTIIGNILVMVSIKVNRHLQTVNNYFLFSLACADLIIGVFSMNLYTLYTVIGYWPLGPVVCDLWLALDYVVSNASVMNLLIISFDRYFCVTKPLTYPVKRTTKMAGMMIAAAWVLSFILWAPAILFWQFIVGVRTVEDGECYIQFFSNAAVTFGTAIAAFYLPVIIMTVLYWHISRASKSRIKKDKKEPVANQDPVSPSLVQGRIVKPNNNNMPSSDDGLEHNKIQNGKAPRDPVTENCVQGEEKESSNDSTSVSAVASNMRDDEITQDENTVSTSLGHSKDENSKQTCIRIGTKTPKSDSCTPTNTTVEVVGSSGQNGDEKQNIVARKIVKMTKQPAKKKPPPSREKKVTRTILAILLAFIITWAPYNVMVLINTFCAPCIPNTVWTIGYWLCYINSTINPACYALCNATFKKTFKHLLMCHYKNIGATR

[6] = biological target: T4, Muscarinic acetylcholine receptor M2; assay type: functional, cell-based; remark: listed apart in the source
[7] = biological target: Muscarinic acetylcholine receptor M3 (Homo sapiens, UniProt P20309)
Chain of Muscarinic acetylcholine receptor M3 (P20309 whole entry): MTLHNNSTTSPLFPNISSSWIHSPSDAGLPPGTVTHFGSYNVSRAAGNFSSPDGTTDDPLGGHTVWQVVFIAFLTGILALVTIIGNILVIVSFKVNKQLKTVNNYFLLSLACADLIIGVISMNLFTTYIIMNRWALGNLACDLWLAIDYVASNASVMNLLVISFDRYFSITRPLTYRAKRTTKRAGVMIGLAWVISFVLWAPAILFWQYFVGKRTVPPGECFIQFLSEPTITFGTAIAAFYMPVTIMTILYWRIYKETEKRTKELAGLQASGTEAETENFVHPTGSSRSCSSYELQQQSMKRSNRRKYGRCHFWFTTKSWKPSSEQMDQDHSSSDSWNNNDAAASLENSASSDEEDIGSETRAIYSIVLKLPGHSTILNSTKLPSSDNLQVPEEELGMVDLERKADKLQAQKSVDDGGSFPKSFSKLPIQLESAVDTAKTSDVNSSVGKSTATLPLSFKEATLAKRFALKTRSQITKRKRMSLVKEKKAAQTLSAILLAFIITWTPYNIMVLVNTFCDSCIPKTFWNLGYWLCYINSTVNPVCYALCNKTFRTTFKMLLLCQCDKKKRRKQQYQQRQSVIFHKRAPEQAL

[8] = biological target: D(1A) dopamine receptor (Homo sapiens, UniProt P21728); assay type: functional, cell-based
Chain of D(1A) dopamine receptor (P21728 whole entry): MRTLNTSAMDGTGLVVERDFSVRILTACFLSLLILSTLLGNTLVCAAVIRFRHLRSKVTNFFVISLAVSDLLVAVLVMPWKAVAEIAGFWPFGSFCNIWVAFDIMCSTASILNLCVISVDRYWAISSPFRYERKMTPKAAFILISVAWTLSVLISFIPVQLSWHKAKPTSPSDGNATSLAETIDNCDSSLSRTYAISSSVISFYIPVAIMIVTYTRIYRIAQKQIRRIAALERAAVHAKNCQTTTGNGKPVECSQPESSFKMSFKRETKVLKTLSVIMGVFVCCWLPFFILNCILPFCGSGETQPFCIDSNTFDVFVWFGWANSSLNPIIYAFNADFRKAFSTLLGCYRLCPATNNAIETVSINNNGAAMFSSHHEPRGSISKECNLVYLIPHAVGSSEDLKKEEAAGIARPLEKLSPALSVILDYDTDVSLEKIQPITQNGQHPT

[9] = biological target: Growth hormone secretagogue receptor type 1 (Homo sapiens, UniProt Q92847)
Chain of Growth hormone secretagogue receptor type 1 (Q92847 whole entry): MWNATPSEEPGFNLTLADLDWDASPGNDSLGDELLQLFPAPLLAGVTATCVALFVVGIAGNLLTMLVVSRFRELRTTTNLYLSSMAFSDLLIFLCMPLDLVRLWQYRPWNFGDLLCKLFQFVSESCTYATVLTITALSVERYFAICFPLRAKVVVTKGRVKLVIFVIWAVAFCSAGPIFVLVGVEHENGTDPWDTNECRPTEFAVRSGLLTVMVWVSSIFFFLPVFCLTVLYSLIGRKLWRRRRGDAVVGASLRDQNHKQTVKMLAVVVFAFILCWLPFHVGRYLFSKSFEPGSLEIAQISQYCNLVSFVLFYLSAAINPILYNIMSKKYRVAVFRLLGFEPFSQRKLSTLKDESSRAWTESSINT

[10] = biological target: 5-hydroxytryptamine receptor 2A (Homo sapiens, UniProt P28223); assay type: functional, cell-based
Chain of 5-hydroxytryptamine receptor 2A (P28223 whole entry): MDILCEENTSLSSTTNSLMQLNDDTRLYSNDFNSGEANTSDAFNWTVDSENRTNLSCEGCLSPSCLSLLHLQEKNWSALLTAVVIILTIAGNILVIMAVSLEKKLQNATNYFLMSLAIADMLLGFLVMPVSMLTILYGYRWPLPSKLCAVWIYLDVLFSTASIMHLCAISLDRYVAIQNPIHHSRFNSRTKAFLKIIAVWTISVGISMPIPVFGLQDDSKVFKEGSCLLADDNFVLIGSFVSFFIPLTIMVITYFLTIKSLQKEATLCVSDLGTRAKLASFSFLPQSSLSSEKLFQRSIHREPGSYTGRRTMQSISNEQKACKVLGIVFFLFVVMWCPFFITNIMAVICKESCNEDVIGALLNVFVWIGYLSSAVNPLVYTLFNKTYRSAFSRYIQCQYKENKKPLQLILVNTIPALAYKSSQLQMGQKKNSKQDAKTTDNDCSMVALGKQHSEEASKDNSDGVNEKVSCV

[11] = biological target: T5, Neuropeptide Y receptor type 1 (Homo sapiens, UniProt P25929)
T5 sequence (P25929 whole entry): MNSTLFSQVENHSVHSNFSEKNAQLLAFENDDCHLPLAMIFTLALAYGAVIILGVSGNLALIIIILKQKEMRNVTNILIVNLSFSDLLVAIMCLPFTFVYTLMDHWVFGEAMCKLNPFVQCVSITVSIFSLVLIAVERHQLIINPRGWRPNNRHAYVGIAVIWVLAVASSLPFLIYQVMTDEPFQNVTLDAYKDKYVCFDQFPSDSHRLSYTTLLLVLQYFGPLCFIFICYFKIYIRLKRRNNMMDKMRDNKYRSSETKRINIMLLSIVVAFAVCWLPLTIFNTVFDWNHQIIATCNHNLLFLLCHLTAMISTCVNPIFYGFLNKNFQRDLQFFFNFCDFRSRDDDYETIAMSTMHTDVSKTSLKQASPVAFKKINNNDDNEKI

[12] = biological target: T6, Thromboxane A2 receptor (Homo sapiens, UniProt P21731)
T6 sequence (P21731 whole entry): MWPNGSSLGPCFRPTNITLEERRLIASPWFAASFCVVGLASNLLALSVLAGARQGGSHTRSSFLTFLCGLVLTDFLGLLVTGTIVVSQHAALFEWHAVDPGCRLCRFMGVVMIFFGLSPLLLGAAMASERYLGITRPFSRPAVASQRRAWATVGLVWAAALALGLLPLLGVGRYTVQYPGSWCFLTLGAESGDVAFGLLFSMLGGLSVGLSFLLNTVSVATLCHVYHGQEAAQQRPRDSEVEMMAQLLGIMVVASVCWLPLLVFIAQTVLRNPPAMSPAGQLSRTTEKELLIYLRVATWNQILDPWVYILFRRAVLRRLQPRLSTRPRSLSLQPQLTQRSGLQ
Also: assay procedure not described here.

Chain of Adenosine receptor A2a (P29274 whole entry): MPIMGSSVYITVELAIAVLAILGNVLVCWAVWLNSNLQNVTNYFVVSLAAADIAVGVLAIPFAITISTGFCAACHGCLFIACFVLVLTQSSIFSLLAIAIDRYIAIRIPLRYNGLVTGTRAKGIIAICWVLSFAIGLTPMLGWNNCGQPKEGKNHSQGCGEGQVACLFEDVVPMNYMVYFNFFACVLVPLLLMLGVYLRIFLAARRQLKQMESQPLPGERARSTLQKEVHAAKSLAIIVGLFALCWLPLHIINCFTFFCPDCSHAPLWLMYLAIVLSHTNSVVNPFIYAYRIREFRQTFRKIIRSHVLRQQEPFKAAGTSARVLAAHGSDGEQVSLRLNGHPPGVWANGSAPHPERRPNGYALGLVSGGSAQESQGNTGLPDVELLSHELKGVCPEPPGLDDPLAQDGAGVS

Molecule | AC50 [1] [µM] | AC50 [2] [µM] | AC50 [3] [µM] | AC50 [4] [µM] | AC50 [5] [µM] | AC50 [6] [µM] | AC50 [7] [µM] | AC50 [8] [µM] | AC50 [9] [µM] | AC50 [10] [µM] | AC50 [11] [µM] | AC50 [12] [µM]
COC(=O)[C@H]1[C@@H](OC(=O)c2ccccc2)C[C@@H]2CC[C@H]1N2C [COCAINE] | > 30 | > 30 | > 30 | > 30 | > 30 | > 30 | > 30 | > 30 | > 30 | > 30 | > 30 | > 30
TOCOFERSOLAN | > 30 | > 30 | > 30 | > 30 | > 30 | > 30 | > 30 | > 30 | > 30 | > 30 | > 30 | > 30
C=C1CC[C@@]2(O)[C@H]3Cc4ccc(O)c5c4[C@@]2(CCN3CC2CC2)[C@H]1O5 | > 30 | > 30 | > 30 | > 30 | > 30 | > 30 | > 30 | > 30 | > 30 | > 30 | > 30 | > 30
CN1C(=O)CC(=O)N(c2ccccc2)c2cc(Cl)ccc21 [CLOBAZAM] | > 10 | > 10 | > 10 | > 10 | > 10 | > 10 | > 30 | > 10 | > 10 | > 10 | > 10 | > 10
COc1ccc(C(=O)N2CCN(c3ccc4c(c3)CCC(=O)N4)CC2)cc1OC [VESNARINONE] | > 30 | > 30 | > 30 | > 30 | > 30 | > 30 | > 30 | > 30 | > 30 | > 30 | > 30 | > 30
C1COC(NC(C2CC2)C2CC2)=N1 [RILMENIDINE] | > 30 | 1.31 | 7.5 | > 30 | > 10 | > 10 | > 30 | > 10 | > 30 | > 30 | > 30 | > 30
CN1CCC2=C(C1)C(c1ccccc1)c1ccccc12 (stereo not drawn) [PHENINDAMINE] | > 10 | > 10 | > 10 | > 10 | > 10 | > 10 | > 30 | > 10 | > 10 | > 10 | > 10 | > 10
Cc1cc(-c2ccccc2)nnc1NCCN1CCOCC1 [MINAPRINE] | > 30 | > 10 | > 10 | > 30 | > 10 | > 10 | > 10 | > 10 | > 30 | > 30 | > 30 | > 30
Cc1c(Cl)cccc1Nc1ccccc1C(=O)O [TOLFENAMIC ACID] | > 30 | > 30 | > 30 | > 30 | > 30 | > 30 | > 30 | > 30 | > 30 | 15 | > 30 | > 30
CN(C)C(=O)OC1N=C(c2ccccc2)c2cc(Cl)ccc2N(C)C1=O (stereo not drawn) [CAMAZEPAM] | > 30 | > 10 | > 10 | > 30 | > 10 | > 10 | > 10 | > 10 | > 30 | > 30 | > 30 | > 30
CN1CC(=O)N2[C@H](c3ccc4c(c3)OCO4)c3[nH]c4ccccc4c3C[C@@H]2C1=O | > 30 | > 10 | > 10 | > 30 | > 10 | > 10 | > 30 | > 10 | > 30 | > 30 | > 30 | > 30
Cc1nc2ccc(CN(C)c3ccc(C(=O)N[C@@H](CCC(=O)O)C(=O)O)s3)cc2c(=O)[nH]1 [RALTITREXED] | > 30 | > 30 | > 30 | > 30 | > 30 | > 30 | > 30 | > 30 | > 30 | > 30 | > 30 | > 30
Cc1ccc(-c2nc3ccc(C)cn3c2CC(=O)N(C)C)cc1 [ZOLPIDEM] | > 30 | > 30 | > 30 | > 30 | > 30 | > 30 | > 30 | > 30 | > 30 | > 30 | > 30 | > 30
Nc1ncnc2c1ncn2[C@@H]1O[C@H](COP(=O)(O)O)[C@@H](O)[C@H]1O [ADENOSINE PHOSPHATE] | > 30 | > 30 | > 30 | > 30 | > 30 | > 30 | > 30 | > 30 | > 30 | > 30 | > 30 | > 30
